Source: patent US11364286B2, “Compositions and methods for the treatment of diseases involving mucin” (priority 2015, dated 2022)
Structures can show the parent of a compound that is named as a salt.

Columns and labels:
[1] = tested on: human ovarian cancer cell line A2780; experiment: Cell viability, SRB assay, 3 days, A2780; type: cell-based; design: unit not given here; details: A2780, 3 days
Description: All cells were maintained at 37° C. The cytotoxic effects of cysteamine, bromelain and the chemotherapeutic agent cisplatin were assessed. Each agent was administered to the cells either alone or in combination with either or both of the other agents. All cells were treated for 72 hours with the reagents and the cell populations were assessed using the SRB assay. Where possible, IC50 and ICmax were calculated. […] Cells were subjected to various treatment regimens as indicated for 3 days before SRB assays were performed.

[2] = tested on: human colorectal cancer cell line HT295M12; experiment: Cell viability, SRB assay, 3 days, HT295M12; type: cell-based; details: Column B=Cysteamine 1 mg/ml (FIG. 19)
Description: (§1) Mesothelioma (YOU and PET), gastric (KATO-III), Colorectal (LS174T and HT295m21), pancreatic (ASPC-1 and CFPAC) and ovarian (A2780) cell lines were grown in RPMI supplemented with 10% FBS, 100 U/ml penicillin and 100 μg/ml streptomycin. All cells were maintained at 37° C.
(§2) The cytotoxic effects of cysteamine, bromelain and the chemotherapeutic agent cisplatin were assessed. Each agent was administered to the cells either alone or in combination with either or both of the other agents. All cells were treated for 72 hours with the reagents and the cell populations were assessed using the SRB assay. Where possible, IC50 and ICmax were calculated.
Data from two independent experiments are represented as mean±SD (6 replicates for each treatment group).

[3] = tested on: HT29 colorectal cancer cells; experiment: Proliferation, SRB assay, 72 hour culture, HT29; type: cell-based; details: individually or in combination
Description: (§3) 5000 cells of each cell line were plated in 96 well plates and grown for 48 hrs at 37° C. in humidified CO2 incubator. After this the medium was replaced with drugs, bromelain, cysteamine and cisplatin in alone or in various combinations. Control wells had medium only. Plates were further incubated for 72 hrs. At the end of incubation proliferation was determined by SRB assay.
(§4) Materials and Method: • 0.4% (w/v) SRB: 1.0 g SRB— Sulforhodamine B sodium salt—(#S1402, SIGMA) in 250 ml of 1% acetic acid (stored at room temperature) • 10% (w/v) TCA: 50 g of Trichloroacetic acid (#T9159, SIGMA) in 500 ml of Milli-Q water (stored at 4° c.) • 10 mM Tris Base: 0.6055 g Tris (Trizma® base, #T6066, SIGMA) in 500 ml of Milli-Q water (stored at 4° c.) • 1% acetic acid: 10 ml of acetic acid in 1000 ml of Milli-Q water.
(§5) 1. After an incubation period of 72 hours, the old medium was discarded and cells were fixed with 200 μl of 10% (w/v) ice-cold TCA (trichloroacetic acid) for 30 minutes at 4° C.
(§6) 2. The plate was washed in distilled water 5 times.
(§7) 3. 100 μl of 0.4% (w/v) sulphorhodamine (SRB) solution was added to each well of the dry 96-well plates and they were allowed staining at room temperature for 10 mins.
4. […]
(§8) 6. The plate was read in a microplate reader (PowerWaveX, BIO-TEK instruments, Inc, USA) with the working wavelength 570 nm. […]

[4] = tested on: human gastric cancer cell line KATO-III; experiment: Cell viability, SRB assay, 3 days, KATO-III; type: cell-based; details: Cysteamine only
Description: as §1, §2
Cells were subjected to various treatment regimens as indicated for 3 days before SRB assays were performed. Data are represented as mean±SD (6 replicates for each treatment group).

[5] = tested on: hard mucin from PMP patients; experiment: Disintegration of hard PMP mucin (weight of remnant mucin); type: biochemical, human; details: 50 mM cysteamine, alone or with 50 μg/ml bromelain; 37°C, 3 hours
PET mesothelioma cells = experiment: Cell viability, SRB assay, 72 h, PET cells; type: cell-based; details: Cysteamine single agent
Description: as §3, with “assay. […]” for “assay.”
as §8
(§9) The cytotoxic effects of cysteamine, bromelain and the chemotherapeutic agent cisplatin were assessed. […] All cells were treated for 72 hours with the reagents and the cell populations were assessed using the SRB assay. Where possible, IC50 and ICmax were calculated.
(§10) Using Chou and Tallarida Method (Tallarida R J. The interaction index: a measure of drug synergism. Pain 2002; 98: 163-168), the Interaction index (γ) was evaluated for a combination of 2 and 3 drugs (γ=1 (additive) (ADD); γ=<1 (synergistic) (SYN) and γ=>1 (sub-additive) (SUB)).

[6] = tested on: MKN45 gastric cancer cells; experiment: Proliferation, SRB assay, 72 hour culture, MKN45; type: cell-based, human; details: combination at the highest concentrations tested
Description: as §3, §4, §5, §6, §7
4. […]
as §8

YOU mesothelioma cells = experiment: Cell viability, SRB assay, 72 h, YOU cells; type: cell-based; details: Cysteamine single agent
Description: as §3, with “assay. […]” for “assay.”
as §8, §9, §10

[7] = tested on: soft mucin from PMP patients; experiment: Disintegration of soft PMP mucin (weight of remnant mucin after incubation with the agents); type: biochemical, human; details: for effect of individual agents on mucin weight over time: Bromelain 300 & 200 μg/ml, NAC 250 mM, Cysteamine 200 mM alone, 0.5-3 h 37°C; for Percentage Disintegration of Mucin Samples: 0 μg/ml BR, negative = gain in weight
Description: Mucin samples from PMP patients were collected and stored under sterile conditions at −80° C. For experiments, the mucin was thawed to room temperature before use. One gram of soft mucin was transferred to a 50 ml centrifuge tube containing 10 ml of either 0.1 M TRIS buffer (pH. 7.0)—controls or similar arrangement containing various concentrations of cysteamine, bromelain or a mixture of the latter two reagents. The concentrations of bromelain investigated ranged from 100-300 μg/ml whilst for cysteamine it was 12.5, 25, 50, 100 and 200 mM. Stock solutions were prepared under sterile conditions in TRIS buffer pH adjusted to 7.0 using 0.1 M Sodium Hydroxide or 0.1 M Hydrochloric acid and the required quantities were added to the respective centrifuge tubes containing the mucin. The tubes were then transferred to a shaking water bath at 37° C. for 2 hours.
At the end of incubation, the remnant mucin was retrieved and weighed. The experiment was carried out using triplicate tubes and readings averaged. All experiments were performed in triplicate.
To a 50 ml centrifuge tube containing 1 g of mucin was added 10 ml of TRIS pH. 7.0 containing 300 μg/ml bromelain+250 mM NAC. Similarly, to 1 g of mucin was added 10 ml of TRIS buffer containing 200 μg/ml bromelain+200 mM cysteamine. For each time interval (0.5, 1.0, 1.5, 2.0, 2.5 and 3.0 h), a total of 6 tubes in triplicate were prepared. The controls contained, TRIS, Bromelain (300 μg/ml & 200 μg/ml), NAC (250 mM) and Cysteamine (200 mM) with mucin (also prepared for each time interval, in triplicates).
The tubes were incubated at 37° C., in a shaker water bath, sample tubes were retrieved at time interval of 0.5 hour and remnant mucin was carefully retrieved and weighed. Percentage weight lost was calculated as follows:
Percentage weight lost (disintegration)=[mucin weight (at 0 hr)−mucin weight (2 or 3 hr)]/mucin weight (at 0 hr).
The experiment was set up as outlined above in Examples 1 and 2 above, however using 10, 20, 40, 60, 80 & 100 μg/ml bromelain with varying concentrations of cysteamine (10, 20, 30, 40 & 50 mM) and the incubation was carried out at 37° C. in a shaker for 3 hours. The controls contained TRIS buffer, 10, 20, 40, 60, 80 & 100 μg/ml bromelain and 10, 20, 30, 40 & 50 mM cysteamine. Each tube was prepared in triplicate and readings averaged.
Experiments were set up as before using 1 g of mucin in a 50 ml centrifuge tube containing either TRIS buffer (pH 7.0), 50 μg/ml bromelain, 50 mM cysteamine or a combination of the last two agents. Six samples from each grades of mucin (soft, semi-hard and hard) were chosen for the experiment and the tubes were incubated in a shaker water bath at 37° C. for duration of 3 hours. The remnant mucin were carefully retrieved and weighed.

[8] = FIG. 22B, 0.25 mg/ml, lowest of 0.25-1 mg/ml
[9] = FIG. 22B, 1 mg/ml, highest of 0.25-1 mg/ml
[10] = FIG. 22B, middle concentration of 0.25-1 mg/ml, value not given
[11] = FIG. 22A, 0.25 mg/ml, lowest of 0.25-1 mg/ml
[12] = FIG. 22A, 1 mg/ml, highest of 0.25-1 mg/ml
[13] = FIG. 22A, middle concentration of 0.25-1 mg/ml, value not given
[14] = FIG. 22C, 0.25 mg/ml, lowest of 0.25-1 mg/ml
[15] = FIG. 22C, 1 mg/ml, highest of 0.25-1 mg/ml
[16] = FIG. 22C, middle concentration of 0.25-1 mg/ml, value not given

Row | Compound | Mean Diff. (Holm-Sidak's multiple comparisons test), control vs. treatment [1, 8] | Mean Diff. (Holm-Sidak's multiple comparisons test), control vs. treatment [1, 9] | Mean Diff. (Holm-Sidak's multiple comparisons test), control vs. treatment [1, 10] | Mean Diff. (Holm-Sidak's multiple comparisons test), control vs. treatment [1, 11] | Mean Diff. (Holm-Sidak's multiple comparisons test), control vs. treatment [1, 12] | Mean Diff. (Holm-Sidak's multiple comparisons test), control vs. treatment [1, 13] | Mean Diff. (Holm-Sidak's multiple comparisons test), control vs. treatment [1, 14] | Mean Diff. (Holm-Sidak's multiple comparisons test), control vs. treatment [1, 15] | Mean Diff. (Holm-Sidak's multiple comparisons test), control vs. treatment [1, 16] | effect of individual agents on mucin weight over time [7] | other results
1 | N[C@@H](CS)C(=O)O [L-Cysteine] | 10.30 | 51.11 | 25.30 |  |  |  |  |  |  |  | 
2 | NCCS [Cysteamine, cysteamine] | 30.75 | 81.49 | 53.01 | 40.75 | 87.12 | 61.62 | 55.93 | 88.77 | 70.70 | only showed hydration initially, with subsequent slight disintegration and hydration | Mean Diff., Column A (control) vs. Column B [2]: 9.610; inhibition of growth [3]: no or little effect; Mean Diff., Column A (control) vs. Column B ([4]; 0.3 mg/ml (FIG. 20B, Table 14B)): −1.313; Mean Diff., Column A (control) vs. Column B ([4]; 0.5 mg/ml (FIG. 20A, Table 14A)): 21.10; Mean Diff., Column A (control) vs. Column B ([4]; 0.5 mg/ml (FIG. 20C, Table 14C)): 49.64; hydration of hard mucin [5]: dramatic percentage of hydration; IC50 (as Cysteamine) (PET mesothelioma cells): 781 µg/mL; ICmax (PET mesothelioma cells; at 11.3 mg/ml cysteamine): 85% at 11.3 mg/ml; effect on in vitro growth [6]: no or little effect; IC50 (as Cysteamine) (YOU mesothelioma cells): 560 µg/mL; ICmax (YOU mesothelioma cells; at 11.3 mg/ml cysteamine): 94% at 11.3 mg/ml; effect of single agents on mucin weight ([7]; Bromelain 100, 200, 300 μg/ml or Cysteamine 12.5-200 mM as single agents, 2 h 37°C): only showed the mucin gaining weight, indicating hydration; Percentage Disintegration of Mucin Samples ([7]; CIS 12.5 mM, 2 h 37°C): −117%; Percentage Disintegration of Mucin Samples ([7]; CIS 25 mM, 2 h 37°C): −115%; Percentage Disintegration of Mucin Samples ([7]; CIS 50 mM, 2 h 37°C): −100%; Percentage Disintegration of Mucin Samples ([7]; CIS 100 mM, 2 h 37°C): −111%; Percentage Disintegration of Mucin Samples ([7]; CIS 200 mM, 2 h 37°C): −86%
3 | NCCS [Cysteamine dihydrochloride] |  |  |  | 55.20 | 94.04 | 74.31 |  |  |  |  | 
4 | CC(=O)N[C@@H](CS)C(=O)O [NAC, N-acetyl cysteine] | 15.35 | 17.73 | 9.290 | 20.45 | 23.92 | 18.80 | 25.62 | 30.51 | 18.03 | only showed hydration initially, with subsequent slight disintegration and hydration | 
5 | N[C@@H](CCC(=O)N[C@@H](CS)C(=O)NCC(=O)O)C(=O)O [L-Glutathione reduced] |  |  |  |  |  |  | 25.68 | 32.71 | 19.54 |  | 
